Legend:
Type in all cases: cell-based, Human
MMP-9 (gelatinase B) = assay: RT-PCR and Western blot, MMP-9 expression in UVB-exposed cells; conditions: HaCaT, UVB 40 mJ/cm^2, RT-PCR and Western blot, FIG. 5
Method: (§1) Human keratinocyte (HaCaT, Korean Cell Line Bank, Seoul, Korea) cells were grown in Dulbecco's modified Eagle medium (DMEM, Gibco-BRL, Gaithersbrug, Md., USA) containing 10% fetal bovine serum (FBS), 2 mM glutamine and 100 μg/mL penicillin-streptomycin (Gibco-BRL, Gaithersbrug, Md., USA) at 37° C. humidified atmosphere of 5% CO2. Cells were sub-cultured to about 90-95% confluence by detaching with trypsin-EDTA solution.
(§2) Total cellular RNA was isolated using Trizol reagent (Invitrogen Co., CA, USA). The 2 μg of isolated RNA was reverse transcribed into cDNA using oligo-(dT) primer (Promega, Madison, Wis., USA). […] Finally, the relative band densities were determined using a LAS3000® Luminescent image analyzer (Fujifilm Life Science, Tokyo, Japan).
(§3) Whole cells were lysed in RIPA buffer (Sigma-Aldrich Corp., St. Louis, USA) at 4° C. for 30 min. After centrifugation, total protein amount of cell lysates were determined using Lowry method (BioRad Laboratories, Hercules, Calif.). […] Bound antibodies were detected by horseradish peroxidase-conjugated secondary antibodies for 1 h at room temperature and the immunoreactive proteins were detected using a chemiluminescent ECL assay kit (Amersham Pharmacia Biosciences, England, UK) according to the manufacturer's instructions. […]

HaCaT cells [1] = assay: Microscopic image of morphological changes in UVB-exposed cells; conditions: UVB 40 mJ/cm^2, microscopic image, FIG. 2C
Method: as §1
To determine the appropriate energy level of UVB irradiation, the cytotoxicity of keratinocytes cultured from the above was determined by comparing the data obtained from MTT and LDH leakage for 6, 12, 24 and 48 h after UVB irradiation from 10 to 3000 mJ/cm^2. Exposure of cells to UVB energy induced significant decrease of cell viability (FIG. 1A) and increase of LDH release in a UVB exposure-dependent manner (FIG. 1B). Morphological changes in keratinocyte cells for different incubation periods (6, 12, 24 and 48 h) after UVB exposure of cells in a range of 10-3000 mJ/cm^2 were compared (FIG. 1C). A larger proportion of cells were swelling and dying in a dose- and time-dependent manner.
(§4) Based on the above results, effects of (2′S)-columbianetin on the viability and injury degree of UVB-exposed keratinocyte cells were examined at incubation for 24 h after UVB exposure of 40 mJ/cm^2.

intracellular ROS = assay: Intracellular ROS generation (DCFH-DA) in UVB-exposed cells; conditions: UVB 40 mJ/cm^2, treated 24 h, FIG. 3
Method: as §1
The levels of intracellular ROS generation were detected using the oxidation sensitive dye 2′,7′-dichlorofluorescin diacetate (DCFH-DA). The cells were grown in a 96-well microplate with fluorescence for 24 h and followed by exposure to UVB (40 mJ/cm^2). The exposed cells were treated with (2′S)-columbianetin for 24 h and then they were loaded with 20 μM of DCFH-DA in PBS and incubated for 30 min in the dark at 37° C. under a humidified atmosphere with 5% CO2. Finally, cells were washed twice with PBS and the fluorescence of DCF in PBS was detected at an excitation wavelength of 485 nm and an emission wavelength of 535 nm using a fluorescence microplate reader (Tacan Austria GmbH, Salzburg, Austria) and the result is shown in FIG. 3.

HaCaT cells [2] = assay: MTT assay, viability of UVB-exposed keratinocyte cells; conditions: UVB 40 mJ/cm^2, incubation 24 h, compared with only UVB-exposed cells, FIG. 2A
Method: as §1
The viability levels of keratinocyte cells were determined by the ability of mitochondria to convert 3-(4,5-dimethylthiazol-2-yl)-2,5-diphenyl tetrazolium bromide (MTT) to insoluble formazan product. Briefly, cells were grown in 96-well plates at a density of 1×10^4 cells/well. After incubation for 24 h, the cells were stimulated by UVB irradiation (40 mJ/cm^2) and incubated for 24 h in the absence or presence of (2′S)-columbianetin at 37° C. under a humidified atmosphere of 5% CO2. The supernatant medium was removed and 100 μL of 1 mg/mL MTT reagent was added to each well, followed by incubation for 4 h. After removal of unconverted MTT, the amount of formazan in the cells was determined by adding DMSO (dimethyl sulfoxide) to wells and measuring optical density (OD) at 540 nm using a microplate reader (Tacan Austria GmbH, Salzburg, Austria). Relative cell viability was calculated as the percentage of viability of untreated cells that were considered the control. […]

MMP-2 (gelatinase A) = assay: RT-PCR and Western blot, MMP-2 expression in UVB-exposed cells; conditions: HaCaT, UVB 40 mJ/cm^2, RT-PCR and Western blot, FIG. 5
Method: as §1, §2, §3

[3] = system: extracellular signal-related kinase (ERK1/2); assay: Western blot, phosphorylated ERK1/2 in UVB-exposed cells; conditions: UVB-exposed HaCaT cells, FIG. 6
Method: as §1, §3

[4] = system: c-Jun N-terminal kinase (JNK); assay: Western blot, phosphorylated JNK in UVB-exposed cells; conditions: UVB-exposed HaCaT cells, FIG. 6
Method: as §1, §3

p38 MAPK = assay: Western blot, phosphorylated p38 MAPK in UVB-exposed cells; conditions: UVB-exposed HaCaT cells, FIG. 6
Method: as §1, §3

TIMP-1 = assay: RT-PCR and Western blot, TIMP-1 expression in UVB-exposed cells; conditions: HaCaT, UVB 40 mJ/cm^2, FIG. 5
Method: as §1, §2, §3

HaCaT cells [5] = assay: LDH release assay, cell injury of UVB-exposed cells; conditions: UVB 40 mJ/cm^2, incubation 24 h, FIG. 2B
Method: as §1
Cell injury was measured by quantifying the amount of lactate dehydrogenase (LDH)-release using a commercial LDH cytotoxicity detection kit (TaKaRa Biomedicals, Tokyo, Japan). Cells were exposed according to the experiment design. The conditioned medium of the UVB-exposed cells was collected for LDH measurement. The substrate mix solution was added to aliquots of the supernatant medium at 1:1 ratio and incubated at 37° C. for 30 min under light protected conditions. Then, the absorbance was determined at 490 nm immediately after the addition of 1N HCl stop solution (final concentration, 0.2 N) using a microplate reader (Tacan Austria GmbH, Salzburg, Austria). Control was prepared with 0.1% (w/v) Triton X-100, which was defined as 100% LDH release.
as §4

[6] = system: genomic DNA of keratinocyte cells; assay: Genomic DNA extraction and DNA oxidation, agarose gel; conditions: UVB-stimulated cells, FIG. 4
Method: as §1
Genomic DNA was isolated from keratinocyte cells using standard phenol/proteinase K procedure with slight modifications (J. Sambrook, D. W. Russell, Molecular Cloning: A Laboratory Manual; 3rd ed. Cold Spring Harbor Laboratory Press: Cold Spring Harbor. 2001). In brief, UVB-stimulated cells in the presence and absence of sample were washed twice with PBS and collected using 1 mL of PBS containing 10 mM EDTA. After centrifugation at 13,400×g for 5 min at 4° C., the deposited cells were resuspended in 410 μL of solution including RNase A (0.5 mg/mL), proteinase K (10 mg/mL), SDS (10%) and NaOAC (0.2 M). After that, this mixture was incubated at 37° C. for 30 min and 55° C. for 1 h. Following incubation, phenol:chloroform:iso-amylalcohol (25:24:1) was added at 1:1 ratio, after which the mixture was centrifuged at 13,400×g for 5 min at 4° C. […] Purity of DNA was determined by ratio of absorbance at 260 and 280 nm using spectrophotometric assay. […]

c-fos = assay: Western blot, AP-1 activation (c-fos) in UVB-exposed cells; conditions: UVB-exposed HaCaT cells, FIG. 7A
Method: as §1, §3

Bax = assay: Western blot, Bax in UVB-exposed cells; conditions: UVB-exposed HaCaT cells, FIG. 7B
Method: as §1, §3

p53 = assay: Western blot, phosphorylated p53 in UVB-exposed cells; conditions: UVB-exposed HaCaT cells, FIG. 7B
Method: as §1, §3

TIMP-2 = assay: RT-PCR and Western blot, TIMP-2 expression in UVB-exposed cells; conditions: HaCaT, UVB 40 mJ/cm^2, FIG. 5
Method: as §1, §2, §3

In the case of `CC(C)(O)C1Cc2c(ccc3ccc(=O)oc23)O1` (stereo not drawn) [(2′S)-columbianetin], the “expression level of UVB-mediated gelatinase B (MMP-9) gene and protein” value (MMP-9 (gelatinase B)) is reported as “reduced by (2′S)-columbianetin in a dose-dependent manner”, the “morphological changes in cells due to UV” value (HaCaT cells [1]) is reported as “effectively suppressed the morphological changes in cells” and the “DCF fluorescence intensity (intracellular ROS)” value (intracellular ROS) is reported as “significantly reduced DCF fluorescence intensity in a dose-dependent manner”. For the same compound, the “cell viability (MTT)” value (HaCaT cells [2]) was “substantially increased cell viability in a dose-dependent manner”, the “expression level of UVB-mediated gelatinase A (MMP-2) gene and protein” value (MMP-2 (gelatinase A)) was “reduced by (2′S)-columbianetin in a dose-dependent manner” and the “expression of phosphorylated ERK1/2 protein” value [3] was “effectively decreased the regulations”. For the same compound, the “expression of phosphorylated JNK protein” value [4] was “effectively decreased the regulations”, the “expression of phosphorylated p38 MAPK protein” value (p38 MAPK) was “effectively decreased the regulations” and the TIMP-1 expression (TIMP-1) was “dose-dependently enhanced”. The “degree of cell injury (LDH release)” value (HaCaT cells [5]) was “substantially decreased the degree of cell injury by UVB exposure in a dose-dependent manner”, the “protective effect on DNA damage due to UVB exposure” value [6] was “adequate protective effect on DNA damage” and the “activated nuclear transcription factor c-fos” value (c-fos) was “significantly down-regulated”. For the same compound, the “expression level of Bax protein” value (Bax) was “the increments were suppressed”, the “expression level of phosphorylated p53” value (p53) was “the increments were suppressed” and the TIMP-2 expression (TIMP-2) was “dose-dependently enhanced”.
